We go through 14 molecules from US9586958B2, “Prodrug derivatives of substituted triazolopyridines” (BAYER PHARMA AKTIENGESELLSCHAFT, priority 2013, dated 2017).

Data set [1] can be described thus: Stability in buffer at pH 7.4 (HPLC). In kind it is physicochemical. To be noted: buffer pH 7.4, 37° C. The method, then: 0.3 mg of the test compound are solved in 0.1 ml dimethylsulfoxide and 0.4 ml acetonitrile. For complete dissolution the HPLC vial with the sample solution is sonified for about 20 seconds. Then 1.0 ml of the buffer solution is added, and the sample is again treated in the ultrasonic bath.
90 g of sodium chloride, 13.61 g of potassium dihydrogen phosphate and 83.35 g of 1 M sodium hydroxide solution are made up to 1 liter with Millipore water and then diluted 1:10.
10 μl portions of the sample solution are analysed by HPLC to determine the amount of the test compound over a period of 24 hours at 37° C. The peak areas in percentage are used for quantification.
Agilent 1100 with DAD (G1315B), binary pump (G1312A), autosampler (G1329A), column oven (G1316A), thermostat (G1330B); column: Kromasil 100 C18, 250 mm×4 mm, 5 μm; column temperature: 37° C.; eluent A: water+5 ml of perchloric acid/liter, eluent B: acetonitrile.
The ratio of the peak areas (F) at different time points in relation to the peak areas at the starting time are shown in Table 2 for representative examples: […]

Data set [2] can be described thus: In vitro stability in rat plasma (HPLC detection). In kind it is in vitro ADME. To be noted: 37° C. As for the experimental part: 1 mg of test compound is dissolved in 1.25 ml dimethylsulfoxide. Then 1.25 ml water are added. 0.5 ml of this sample solution are mixed with 0.5 ml heparinized and 37° C. warm plasma (wistar rat plasma or human plasma). A first sample (10 μl) is immediately taken for HPLC analysis. In the period up to 4 h after the start of incubation further 10 μl aliquots are taken after 30, 60, 90, 120 and 240 minutes and the amount of the test compound is determined.
Agilent 1100 with DAD (G1315A), binary pump (G1312A), autosampler (G1329A), column oven (G1316A), thermostat (G1330B); column: Kromasil 100 C18, 250 mm×4 mm, 5 μm; column temperature: 45° C.; eluent A: water+5 ml of perchloric acid/liter, eluent B: acetonitrile.

Counter-ions that a name gives are not always drawn.

On to `COc1cc(S(C)(=O)=O)ccc1N(C(=O)OC(C)OC(=O)[C@@H](N)C(C)(C)C)c1nc2ccc(-c3ccc(NC(=O)[C@H](C)c4ccc(F)cc4)cc3)cn2n1.Cl` (single isomer, unassigned) [Example 3.3, (1R or 1S)-1-({[6-(4-{[(2R)-2-(4-fluorophenyl)propanoyl]amino}phenyl)[1,2,4]triazolo[1,5-α]pyridin-2-yl][2-methoxy-4-(methylsulfonyl)phenyl]carbamoyl}oxy)ethyl-3-methyl-L-valinate hydrochloride], for which the “% Test Compound after 24 h [F(t = 24 h) × 100/F(t = 0 h)]” value (from here on “% Test Compound after 24 h”) in data set [1] is listed as 0.0%. Further, in data set [2] (hydrochloride), the “% Test Compound after 4 h [F(t = 24 h) × 100/F(t = 0 h)]” value (“% Test Compound after 4 h” for short) was determined as 22%.
In the same order, the values of `COc1cc(S(C)(=O)=O)ccc1N(C(=O)OC(C)OC(=O)[C@@H](N)C(C)(C)C)c1nc2ccc(-c3ccc(NC(=O)[C@H](C)c4ccc(F)cc4)cc3)cn2n1.Cl` (single isomer, unassigned) [Example 3.4, (1S or 1R)-1-({[6-(4-{[(2R)-2-(4-fluorophenyl)propanoyl]amino}phenyl)[1,2,4]triazolo[1,5-α]pyridin-2-yl][2-methoxy-4-(methylsulfonyl)phenyl]carbamoyl}oxy)ethyl-3-methyl-L-valinate hydrochloride] are 0.0% and 29%.
Consider `COc1cc(S(C)(=O)=O)ccc1N(C(=O)OC(OC(=O)[C@@H](N)C(C)C)C(C)C)c1nc2ccc(-c3ccc(NC(=O)[C@H](C)c4ccc(F)cc4)cc3)cn2n1` (single isomer, unassigned) [Example 5.2, (1R or S)-1-({[6-(4-{[(2R)-2-(4-fluorophenyl)propanoyl]amino}phenyl)[1,2,4]triazolo[1,5-α]pyridin-2-yl][2-methoxy-4-(methylsulfonyl)phenyl]carbamoyl}oxy)-2-methylpropyl-L-valinate hydrochloride], for which, in data set [1], the “% Test Compound after 24 h” value is 48%. For the same molecule, the “% Test Compound after 4 h” value in data set [2] is 44%.
Regarding `COc1cc(S(C)(=O)=O)ccc1N(C(=O)OCOC(=O)[C@@H](N)C(C)C)c1nc2ccc(-c3ccc(NC(=O)[C@H](C)c4ccc(F)cc4)cc3)cn2n1` [Example 1.2, ({[6-(4-{[(2R)-2-(4-fluorophenyl)propanoyl]amino}phenyl)[1,2,4]triazolo[1,5-α]pyridin-2-yl][2-methoxy-4-(methylsulfonyl)phenyl]carbamoyl}oxy)methyl L-valinate hydrochloride], the “% Test Compound after 24 h” value in data set [1] turned out to be 0.0%. In addition, the “% Test Compound after 4 h” value in data set [2] stood at 0.0%.
`CN[C@H](C(=O)OCOC(=O)N(c1nc2ccc(-c3ccc(NC(=O)[C@H](C)c4ccc(F)cc4)cc3)cn2n1)c1ccc(S(C)(=O)=O)cc1OC)C(C)C.Cl` [Example 1.4, ({[6-(4-{[(2R)-2-(4-fluorophenyl)propanoyl]amino}phenyl)[1,2,4]triazolo[1,5-α]pyridin-2-yl][2-methoxy-4-(methylsulfonyl)phenyl]carbamoyl}oxy)methyl N-methyl-L-valinate hydrochloride]: the “% Test Compound after 24 h” value in data set [1] worked out at 0.0%. Further, in data set [2], the “% Test Compound after 4 h” value turned out to be 14%.
`COc1cc(S(C)(=O)=O)ccc1N(C(=O)OCOC(=O)[C@@H](N)C(C)(C)C)c1nc2ccc(-c3ccc(NC(=O)[C@H](C)c4ccc(F)cc4)cc3)cn2n1.Cl` [Example 1.5, ({[6-(4-{[(2R)-2-(4-fluorophenyl)propanoyl]amino}phenyl)[1,2,4]triazolo[1,5-α]pyridin-2-yl][2-methoxy-4-(methylsulfonyl)phenyl]carbamoyl}oxy)methyl 3-methyl-L-valinate hydrochloride]: in data set [1], the “% Test Compound after 24 h” value turned out to be 0.0%. Besides, the “% Test Compound after 4 h” value in data set [2] was 0.0%.
As for `COc1cc(S(C)(=O)=O)ccc1N(C(=O)OCOC(=O)C(C)(C)CN)c1nc2ccc(-c3ccc(NC(=O)[C@H](C)c4ccc(F)cc4)cc3)cn2n1.O=C(O)C(F)(F)F` [Example 1.8, ({[6-(4-{[(2R)-2-(4-fluorophenyl)propanoyl]amino}phenyl)[1,2,4]triazolo[1,5-α]pyridin-2-yl][2-methoxy-4-(methylsulfonyl)phenyl]carbamoyl}oxy)methyl 3-amino-2,2-dimethylpropanoate trifluoroacetate], the “% Test Compound after 24 h” value in data set [1] is recorded as 0.0%. The “% Test Compound after 4 h” value in data set [2] was 3%.
The corresponding values for `COc1cc(S(C)(=O)=O)ccc1N(C(=O)OCOC(=O)[C@@H](NC(=O)[C@@H](N)CCCCN)C(C)C)c1nc2ccc(-c3ccc(NC(=O)[C@H](C)c4ccc(F)cc4)cc3)cn2n1.Cl.Cl` [Example 2.1, ({[6-(4-{[(2R)-2-(4-fluorophenyl)propanoyl]amino}phenyl)[1,2,4]triazolo[1,5-α]pyridin-2-yl][2-methoxy-4-(methylsulfonyl)phenyl]carbamoyl}oxy)methyl L-lysyl-L-valinate dihydrochloride] are 0.0% and 0.0%.
The corresponding values for `COc1cc(S(C)(=O)=O)ccc1N(C(=O)OCOC(=O)[C@@H](NC(=O)[C@@H](N)C(C)C)C(C)C)c1nc2ccc(-c3ccc(NC(=O)[C@H](C)c4ccc(F)cc4)cc3)cn2n1` [Example 2.3, ({[6-(4-{[(2R)-2-(4-fluorophenyl)propanoyl]amino}phenyl)[1,2,4]triazolo[1,5-α]pyridin-2-yl][2-methoxy-4-(methylsulfonyl)phenyl]carbamoyl}oxy)methyl L-valyl-L-valinate hydrochloride] are 16% and 37%.
The corresponding values for `CNCCCC(=O)N(c1nc2ccc(-c3ccc(NC(=O)[C@H](C)c4ccc(F)cc4)cc3)cn2n1)c1ccc(S(C)(=O)=O)cc1OC.O=C(O)C(F)(F)F` [Example 4.1, N-[6-(4-{[(2R)-2-(4-fluorophenyl)propanoyl]amino}phenyl)[1,2,4]triazolo[1,5-α]pyridin-2-yl]-N-[2-methoxy-4-(methylsulfonyl)phenyl]-4-(methylamino)butanamide trifluoroacetate] are 23% and 12%.
For `CNCCCC(=O)N(c1nc2ccc(-c3ccc(NC(=O)[C@H](C)c4ccc(F)cc4)cc3)cn2n1)c1ccc(S(C)(=O)=O)cc1OC.Cl` [Example 4.1.1, N-[6-(4-{[(2R)-2-(4-fluorophenyl)propanoyl]amino}phenyl)[1,2,4]triazolo[1,5-α]pyridin-2-yl]-N-[2-methoxy-4-(methylsulfonyl)phenyl]-4-(methylamino)butanamide hydrochloride], the “% Test Compound after 24 h” value in data set [1] turned out to be 21%. In addition, the “% Test Compound after 4 h” value in data set [2] turned out to be 32%.
In the same order, the values of `C[C@@H](C(=O)Nc1ccc(-c2ccc3nc(N(C(=O)OCOC(=O)[C@@H](N)C(C)(C)C)c4ccc(S(C)(=O)=O)cc4OCC(F)(F)F)nn3c2)cc1)c1ccc(F)cc1.Cl` [Example 6.1, ({[6-(4-{[(2R)-2-(4-fluorophenyl)propanoyl]amino}phenyl)[1,2,4]triazolo[1,5-α]pyridin-2-yl][4-(methylsulfonyl)-2-(2,2,2-trifluoroethoxy)phenyl]carbamoyl}oxy)methyl 3-methyl-L-valinate hydrochloride] are 0.0% and 4%.
In the same order, the values of `C[C@@H](C(=O)Nc1ccc(-c2ccc3nc(N(C(=O)OCOC(=O)[C@@H](N)C(C)(C)C)c4ccc(C(=O)N5CC(F)C5)cc4OCC(F)(F)F)nn3c2)cc1)c1ccc(F)cc1.Cl` [Example 6.3, [({4-[(3-fluoroazetidin-1-yl)carbonyl]-2-(2,2,2-trifluoroethoxy)phenyl}[6-(4-{[(2R)-2-(4-fluorophenyl)propanoyl]amino}phenyl)[1,2,4]triazolo[1,5-α]pyridin-2-yl]carbamoyl)oxy]methyl 3-methyl-L-valinate hydrochloride] are 0.0% and 0.0%.
The corresponding values for `CNCCOC(=O)N(c1nc2ccc(-c3ccc(NC(=O)[C@H](C)c4ccc(F)cc4)cc3)cn2n1)c1ccc(S(C)(=O)=O)cc1OC.Cl` [Example 7.1, 2-(methylamino)ethyl [6-(4-{[(2R)-2-(4-fluorophenyl)propanoyl]amino}phenyl)[1,2,4]triazolo[1,5-α]pyridin-2-yl][2-methoxy-4-(methylsulfonyl)phenyl]carbamate hydrochloride] are 48% and 80%.
